The assay addresses FIXa (Homo sapiens, UniProt P00740). Kind of assay: FXa generation assay with human FIXa. The assay is classed as biochemical. On the set-up: purchased Haematologic Technologies.
Where [1] appears, read: FXa generation assay using human FIXa, class symbols.
Setting [2] is: FXa generation assay using human FIXa, numeric bounds.

FIXa, sequence (P00740 47-191 limits assumed): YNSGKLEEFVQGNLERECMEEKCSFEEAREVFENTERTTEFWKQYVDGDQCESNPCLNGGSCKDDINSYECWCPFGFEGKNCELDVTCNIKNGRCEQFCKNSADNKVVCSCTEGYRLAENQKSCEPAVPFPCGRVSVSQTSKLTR
FIXa, sequence (P00740 227-461 limits assumed): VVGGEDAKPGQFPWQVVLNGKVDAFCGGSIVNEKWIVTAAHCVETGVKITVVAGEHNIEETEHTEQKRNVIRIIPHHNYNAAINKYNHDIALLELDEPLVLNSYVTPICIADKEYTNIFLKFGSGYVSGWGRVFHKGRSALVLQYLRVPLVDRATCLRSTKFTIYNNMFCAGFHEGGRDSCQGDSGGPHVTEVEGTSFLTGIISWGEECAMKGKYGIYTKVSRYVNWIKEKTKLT
From the text: FXa generation was utilized to assess the capability of the compounds of the present disclosure to enhance the catalytic activities of FIXa and/or FVIIa.
To measure the catalytic activity of FIXa, FIXa was mixed with FX and phospholipids in the presence of calcium chloride. Under these conditions FIXa cleaves the zymogen FX into the active form FXa.
The generation of FXa is monitored by the change in absorbance of the reaction at 405 nm due to the presence of a cleavable FXa chromogenic substrate (S-2765; Z-D-Arg-Gly-Arg-pNA; cleavage of p-nitroaniline). […] The kit contains all the FXa generation components, however, FIXa and FX obtained from this kit are from a bovine origin and were replaced with purified human FIXa or human FVIIa and human FX (Haematologic Technologies).
The assay was also modified to enhance the screening throughput. Instead of the sequential addition, all the assay components were mixed and added simultaneously to the purified compound to be assayed. A 125 μl reaction mix of the assay components was prepared in the buffer supplied by the manufacturer (50 mM Tris 7.3, and 1% BSA). […] The reaction mix (125 ul) was then added to 25 ul of compound diluted in water in a Costar-3651 flat bottom 96-well plate. […] The absorbance was monitored over a period of 1 hour at 405 nm using a plate reader (Synergy 2, Biotek).
The 405 nm absorbance data were then analyzed to obtain the slope of the first derivative which reflects the rate of change in absorbance. The first derivative slope data for each compound concentration were plotted against the compound concentration and fitted to a four-parameter equation to obtain the EC50 and Vmax values for each compound tested.

Take QQRQIKMSCLASYCWLFGSIPW: under setting [1], the EC50 lay in the range of 500 to 1000 nM and the Vmax entry was “(++) ((++) 1-2)”.
Take SGGSGKLTCLASYCWPFGSQVR: under setting [1], the Vmax entry was “(+) ((+)<1)”.
For the substance RPGGGKVTCQASYCWPFLARAG, the Vmax entry under setting [1] is reported as “(+) ((+)<1)”.
The same measure, in the same setting: with SGFGMKLTCLASYCGLFQGEIG the entry was “(+) ((+)<1)”; with GCSSDKLTARTRHCSMFQPLSV, “(+) ((+)<1)”.
The same measure, in the same setting: with HQQRRKLTCLAGYCWLFVLGPS the entry was “(+++) ((+++)>2)”.
Turning to QLTCLASYCWLF, the Vmax result under setting [1] is reported as “(+) ((+)<1)”.
Take SISGQQLTCRASHCWLNLPWHS: the Vmax entry under setting [1] was “(+) ((+)<1)”.
For the substance NLTGRASYGWLP, under setting [1], the Vmax entry is reported as “(+) ((+)<1)”.
With KLSCQAGQCWVF, the Vmax result under setting [1] is “(+++) ((+++)>2)”.
Same read-out and setting: then RSTVSQMRCLASYCWLFPALVS, with “(++) ((++) 1-2)”.
As for KKTCVASFCQMI, the Vmax under setting [2] is above 4.
Consider LLHAQKLSCLASYCWVFDAEWD, for which, under setting [1], the Vmax entry was “(+) ((+)<1)”.
On to VDKGHQLRCQAGYCWLLGYNRE, for which the Vmax entry under setting [1] is on record as “(+) ((+)<1)”.
The same measure, in the same setting: with VGEHRKISCVASNCQLLRSGLA the entry was “(+) ((+)<1)”; with KLTCLASYCQLV, “(+++) ((+++)>2)”; with KLTCLGSYCWLF, “(+++) ((+++)>2)”.
With KLTCLKSYCWLF, the Vmax entry under setting [1] is “(++) ((++) 1-2)”.
For RSQGRKLTCLASYCWLFLVVHR, under setting [1], the Vmax entry is given as “(++) ((++) 1-2)”.
Regarding RGRSAKLRCLASYCWLFFTVIL, the Vmax result under setting [1] was “(+++) ((+++)>2)”.
On the same count and under the same terms, then QLTCLASYCGGV, with “(+) ((+)<1)”; and ERYRLDMTCMASQCWQFPPAAG, with “(++) ((++) 1-2)”; and APPGGKRMCLVSGCQLFPWSAS, with “(+) ((+)<1)”.
In the case of GAQLDKETCLASYCQLFSTVRR, the Vmax result under setting [1] is reported as “(+) ((+)<1)”.
In the case of SKWEHQRGCLANNCWLFTLAPG, the Vmax entry under setting [1] is recorded as “(+) ((+)<1)”.
In the case of GEGGGKLSCVAIQCGLFKGLGR, the Vmax entry under setting [1] is listed as “(+) ((+)<1)”.
The same measure, in the same setting: then MEGTRQPTCLASYCSPFQYVAP, with “(+) ((+)<1)”; and VSGTGKLTCLASYCWLFQLGSF, with “(++) ((++) 1-2)”.
In the case of TLLYQNRTCLASYCWLFDKRSV, the Vmax result under setting [1] is on record as “(+) ((+)<1)”.
For NGGMQKPACLASQCWLFANPLP, the Vmax entry under setting [1] is “(++) ((++) 1-2)”.
Turning to RGSVHQPTCLGGYCGRLHSSWV, the Vmax entry under setting [1] is given as “(+) ((+)<1)”.
FGQPSRLTCLASYCWLFGNLVT: the Vmax entry under setting [1] was “(++) ((++) 1-2)”.
Consider DAGPNKLRCLASYCQLFGGGHA, for which the Vmax result under setting [1] is “(+) ((+)<1)”.
RHSNHNLTCQASYCWLLPAGLQ: under setting [1], the Vmax entry is “(+) ((+)<1)”.
As for GIQGSEVACRASFCRLFEQGHV, the Vmax entry under setting [1] is “(+) ((+)<1)”.
The same measure, in the same setting: with VAHYGKVTCLASYCQPLPSVGA the entry was “(+) ((+)<1)”; with KLTCLASKCWLF, “(+) ((+)<1)”.
Take RRCPGKLQALASYCWLFWTGIA: the Vmax entry under setting [1] was “(+++) ((+++)>2)”.
For MAGMLKLTCFASYCGLFPLVSS, under setting [1], the Vmax entry is recorded as “(++) ((++) 1-2)”.
For the substance GGALQQLTCPASYCWLFPMEHS, the Vmax result under setting [1] is on record as “(+) ((+)<1)”.
For the substance DAKVAKLRCLGSQCWLLQYAPG, the Vmax result under setting [1] is on record as “(++) ((++) 1-2)”.
Take QQTCQASQCQLF: under setting [1], the Vmax result is on record as “(+) ((+)<1)”.
On to KLTCLVSYCWLF, for which, under setting [1], the EC50 fell in the range of 500 to 1000 nM and the Vmax result was “(+++) ((+++)>2)”.
For RFQTTQLTCLGSASCLFNLSVR, the Vmax result under setting [1] is “(+) ((+)<1)”.
Regarding RGRSAKLRCLASYCWLFFGVIL, the Vmax result under setting [1] is “(+++) ((+++)>2)”.
For LTWREKLACLASYCWLFLWGAP, the Vmax result under setting [1] was “(++) ((++) 1-2)”.
With EGRRDKLTCLASYCWLVGHGQH, under setting [2], the Vmax is listed as above 0.3.
In the case of HMQWGKLPCLASYCWLFWYGIG, under setting [1], the Vmax result is recorded as “(+++) ((+++)>2)”.
With HGLADRLTCLSSDCWLQPFGTS, the Vmax result under setting [1] is given as “(+) ((+)<1)”.
For “PRIrTVGPGSrSASGKSTCLASYCWLFWTGIA [Compound 24]”, the Vmax result (FXa generation assay, 10 nM hFIXa, 100 nM hFX, class symbols) is “(++++) ((++++)>3)”.
Regarding AQLRRKLTCLASYCWLFGFFSP, under setting [1], the Vmax result is reported as “(++) ((++) 1-2)”.

As usually defined, the EC50 is the concentration at which the effect is half-maximal. Read a low EC50 as an effect from little substance.
